In assay [1] the target is T1, P2X4 (Homo sapiens, UniProt Q99571).
T1 sequence (Q99571 1-388): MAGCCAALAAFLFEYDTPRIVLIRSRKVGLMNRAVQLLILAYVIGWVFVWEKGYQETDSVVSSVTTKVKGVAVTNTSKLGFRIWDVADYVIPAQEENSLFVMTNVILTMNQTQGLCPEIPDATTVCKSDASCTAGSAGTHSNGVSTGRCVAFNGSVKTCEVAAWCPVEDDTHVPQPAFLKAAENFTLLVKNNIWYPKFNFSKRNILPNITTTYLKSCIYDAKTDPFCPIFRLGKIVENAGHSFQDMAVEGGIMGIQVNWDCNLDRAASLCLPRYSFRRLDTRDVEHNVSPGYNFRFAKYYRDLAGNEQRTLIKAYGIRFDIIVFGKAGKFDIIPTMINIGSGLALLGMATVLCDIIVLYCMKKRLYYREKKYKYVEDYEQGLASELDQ
The assay is described as follows: Assay A: human P2X4 receptor cell line, FLIPR calcium assay (Fluo-8, agonist Bz-ATP at EC80). The format is cell-based. The arrangement: host or cells: HEK 293 (recombinant, constitutively expressing; with mitochondrial photina in Assay B). The settings on record: HEK human P2X4 cells, Fluo-8 FLIPR; for IC50: Bz-ATP at EC80, average values; for Emax: percentage of maximal inhibition, read-out: human P2X4 Assay A avg Efficacy. In outline:
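Antagonism read as inhibition of the calcium response to EC80 Bz-ATP, by peak-over-basal Fluo-8 fluorescence over 120 s, normalized to DMSO wells. Human P2X4-HEK cells, dye-loaded 30 min in probenecid-containing HBSS/HEPES pH 7.4, received compound 30 min beforehand at room temperature, 0.5% DMSO final. Triplicates fitted for IC50, maximal inhibition and Hill slope.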

In assay [2] the target is T1, P2X4. In words: Assay B: human P2X4 receptor cell line, mitochondrial photina luminescence (agonist Bz-ATP at EC50). Particulars: HEK human P2X4 cell line, photina luminescence, agonist Bz-ATP at EC50, average; for Emax: read-out: human P2X4 Assay B avg Efficacy. On the set-up: host or cells: HEK 293 (recombinant, constitutively expressing; with mitochondrial photina in Assay B). It is filed as cell-based. In outline: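 Bz-ATP at its EC50 activates human P2X4 stably expressed in a cell line that also carries the calcium-sensitive photoprotein mitochondrial photina (coelenterazine cofactor). Light emitted on calcium influx is measured straight away in a luminometer. Reduced luminescence indicates antagonism.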

The target of a further assay is T2, mouse P2X4 receptors (Mus musculus, UniProt Q9JJX6).
T2 construct: host or cells: HEK 293 (recombinant, constitutively expressing)
T2 sequence (Q9JJX6 1-388): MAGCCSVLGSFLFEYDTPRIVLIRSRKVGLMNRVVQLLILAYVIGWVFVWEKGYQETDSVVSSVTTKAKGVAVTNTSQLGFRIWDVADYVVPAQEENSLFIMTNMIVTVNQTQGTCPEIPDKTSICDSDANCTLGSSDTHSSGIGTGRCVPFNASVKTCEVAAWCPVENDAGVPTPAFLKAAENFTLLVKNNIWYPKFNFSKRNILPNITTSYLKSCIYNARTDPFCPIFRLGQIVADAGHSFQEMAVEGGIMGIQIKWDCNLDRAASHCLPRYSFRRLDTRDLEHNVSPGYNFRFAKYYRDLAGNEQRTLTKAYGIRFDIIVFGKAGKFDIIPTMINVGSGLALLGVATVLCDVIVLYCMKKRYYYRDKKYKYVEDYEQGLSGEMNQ
In words: Assay B: mouse P2X4 receptor cell line, Fluo8 fluorescence FLIPR (agonist Bz-ATP at EC50). The format is cell-based. The settings on record: HEK mouse P2X4 cell line, agonist Bz-ATP at EC50, average. On the procedure: The identification of agonists and antagonists of the P2X4 receptor from humans and […] also the quantification of the activity of the compounds of the invention was performed by use of recombinant cell lines. […] The test cell lines constitutively express the mouse or human P2X4 receptors. Stimulation of the receptors with an agonist leads to a conformational change of P2X4 and influx of extracellular calcium ions through the ion channel. The cytoplasmatic calcium transient is detected via the calcium sensitive dye Fluo8 for the mouse P2×4 cell line or in case of the human P2×4 cell line a stably expressed calcium-sensitive photoprotein, mitochondrial photina, which, after reconstitution with the cofactor coelenterazine, emits light in dependence of calcium binding [Bovolenta S, Foti M, Lohmer S, Corazza S., J Biomol Screen. […] The strength of Fluo8 fluorescence signal or photina luminescence signal corresponds to the level of receptor activation. An inhibitor would decrease the signal depending on its potency and concentration.
On the day of the assay medium is exchanged by Fluo8 containing buffer for 30 minutes. In the fluorescence reader (FLIPR) test substances in various concentrations are added for 10 minutes. After baseline measurement the agonist Bz-ATP at EC50 concentration is applied and fluorescence is measured immediately.

The target of assay [3] is T1, P2X4. In words: Human whole blood assay (human WBA): IL-13 production after LPS priming and ATP stimulation. The format is cell-based. On the set-up: from tissue; host or cells: human whole blood of healthy female volunteers. The settings on record: IL-13 in human whole blood, LPS 100 ng/ml 2 h then ATP 3 mM 1 h; total concentration. As to the method: Human whole blood assay (human WBA) was prepared from the blood of healthy female volunteers. In this assay, the efficacy of P2X4 antagonists on the production of IL-13 in whole blood after ATP stimulation (3 mM for 1 h) following priming of the cells with lipopolysacaride (LPS, 100 ng/ml for 2 h) was evaluated. After incubation, supernatant was taken following centrifugation and the formation of IL-13 was assayed using standard ELISA kits. IC50 values were calculated using GraphPad PRISM program with nonlinear regression curve fit. Data are presented as total concentration.

In a further assay the test system is PGE2 levels. In words: PGE2 levels after CFA-induced inflammation in mice (hind paw tissue, ELISA). It is filed as in vivo, mouse. The settings on record: single oral dose 12.5, 25, 50 mg/kg, 48 h after CFA, 1 h after dose. As to the method:
Female c57bl/6 mice (Taconic) received intraplantar injection of complete Freund's adjuvant (CFA) (30 μl, 1 mg/ml, Sigma) into the left hind paw under isoflurane anesthesia. […] At termination of the experiments (48 h after CFA, 1 h after dose), hind paw tissue is collected for analysis of PGE2 levels (ELISA, Cayman Chemical item no. 514531).
(§1) Statistical analysis is performed with one-way analysis of variance, followed by Bonferroni's multiple comparison test vs. vehicle controls using the GraphPad PRISM software, *p<0.05, **p<0.01.
(In general: ELISA stands for enzyme-linked immunosorbent assay.)

The next assay concerns c57bl/6 mice. The assay is described as follows: CFA inflammation model with pain read out (dynamic weight bearing). The format is in vivo, mouse. Particulars: 50 mg/kg oral on day 1 and day 2 post-CFA, 24-48 h after CFA. On the procedure: Wild type female c57bl/6 mice (Taconic) received intraplantar injection of complete Freund's adjuvant (CFA) (30 μl, 1 mg/ml, Sigma) into the left hind paw under isoflurane anesthesia. […] Spontaneous pain-related behavior in freely moving animals was assessed using the automated dynamic weight bearing device (DWB, Bioseb, France) according to published and validated protocols (Robinson et al., 2012; Tetreault et al., 2011; Gruen et al. 2014). For behavioral testing, the animal was placed inside a Plexiglas chamber and allowed to move freely within the apparatus for a 5 min period, subsequently pain behavior is recorded for a test period of another 5 min.
as §1

Broadly, the IC50 is the concentration that inhibits the measured activity by half.

Entries after “also recorded” stand apart in the source; their conditions may differ.

For `N#Cc1cccc(Oc2ccc(NC(=O)Cc3ccccc3Cl)cc2S(N)(=O)=O)c1` [Example 015, 2-(2-Chlorophenyl)-N-[4-(3-cyanophenoxy)-3-sulfamoylphenyl]acetamide], the IC50 was found to be 58 nM at P2X4 [1], 25 nM at P2X4 [2], 149 nM on mouse P2X4 receptors and 2540 nM on P2X4 [3]. Moreover, the Emax was 71% at P2X4 [1] and 80% on P2X4 [2]. Further, the “mouse P2X4 Assay B avg Efficacy” value on mouse P2X4 receptors was found to be 45%.

As for `NS(=O)(=O)c1cc(NC(=O)Cc2cc(F)ccc2Cl)ccc1OCC1CCOCC1` [Example 163, 2-(2-Chloro-5-fluorophenyl)-N-[3-sulfamoyl-4-(tetrahydro-2H-pyran-4-ylmethoxy)phenyl]acetamide], the Emax at P2X4 [1] turned out to be 68%. In addition, the Emax on P2X4 [2] worked out at 61%. For the same compound, on mouse P2X4 receptors, the IC50 was 3500 nM and the “mouse P2X4 Assay B avg Efficacy” value was 65%.

In the case of `CN(C)C(=O)c1cccc(CC(=O)Nc2ccc(Oc3cccc(Cl)c3)c(S(N)(=O)=O)c2)c1` [Example 202, 3-(2-{[4-(3-Chlorophenoxy)-3-sulfamoylphenyl]amino}-2-oxoethyl)-N,N-dimethylbenzamide], on P2X4 [1], the IC50 was found to be 121 nM and the Emax worked out at 72%. At P2X4 [2], the IC50 was determined as 278 nM and the Emax was found to be 83%. For the same compound, on mouse P2X4 receptors, the IC50 turned out to be 947 nM and the “mouse P2X4 Assay B avg Efficacy” value is 60%.

Turning to `NS(=O)(=O)c1cc(NC(=O)Cc2ccccc2Cl)ccc1OC1CCOCC1` [Example 207, 2-(2-Chlorophenyl)-N-[3-sulfamoyl-4-(tetrahydro-2H-pyran-4-yloxy)phenyl]acetamide], the IC50 on P2X4 [1] was 473 nM; at P2X4 [2], 100 nM; on mouse P2X4 receptors, no less than 16000 nM. The figures for the Emax at P2X4 [1] and on P2X4 [2] were 60% and 77%, respectively. Also, the “mouse P2X4 Assay B avg Efficacy” value at mouse P2X4 receptors was 20%.

For the compound `COc1ccc(CC(=O)Nc2ccc(Oc3ccc(Cl)cc3)c(S(N)(=O)=O)c2)cc1` [Example 229, N-[4-(4-Chlorophenoxy)-3-sulfamoylphenyl]-2-(4-methoxyphenyl)acetamide], the IC50 on P2X4 [1] was 472 nM; on P2X4 [2], 78 nM; on P2X4 [3] it was 30000 nM. The values for the Emax on P2X4 [1] and on P2X4 [2] were 63% and 56%, respectively.

On to `NS(=O)(=O)c1cc(NC(=O)Cc2ccccc2Cl)ccc1OC1CCS(=O)(=O)C1` (stereo not shown) [Example 232, 2-(2-Chlorophenyl)-N-{4-[(1,1-dioxidotetrahydrothiophen-3-yl)oxy]-3-sulfamoylphenyl}acetamide], for which the results for the IC50 at P2X4 [1], at P2X4 [2] and at mouse P2X4 receptors were 215 nM, 149 nM and 3330 nM, respectively. Further, the values for the Emax on P2X4 [1] and at P2X4 [2] were 57% and 49%, respectively. The “mouse P2X4 Assay B avg Efficacy” value at mouse P2X4 receptors amounted to 61%.

On to `NS(=O)(=O)c1cc(NC(=O)Cc2ccccc2)ccc1Oc1cccc(Cl)c1` [Example 244, N-[4-(3-Chlorophenoxy)-3-sulfamoylphenyl]-2-phenylacetamide], for which the “PGE2 levels in inflamed hind paw after CFA injection” value with PGE2 levels is “dose-dependently reduced PGE2 levels; also recorded: still in the range of PGE2 levels of PBS treated animals”. The “spontaneous pain behavior assessed by DWB after CFA-induced inflammation” value in the assay with c57bl/6 mice was “significantly reduced spontaneous pain behavior”. Also, the “mouse P2X4 Assay B avg Efficacy” value on mouse P2X4 receptors came out at 51%.

For the origin of these results see patent publication US20180338980A1, “AROMATIC SULFONAMIDE DERIVATIVES” (BAYER PHARMA AKTIENGESELLSCHAFT, priority 2015, published 2018).
